Measurements from US7763600B2, “Hormone-based nitrogen monoxide donor compounds and use thereof in obstetrics and gynecology” (EFFIK, priority 2002, dated 2010).

System: human myometreal fragments
Experiment: Inhibition in vitro of the uterine contractility of myometreal fibers from uteruses of women who are not pregnant
Format: cell-based
Conditions: for Inhibition as % (Mean): spontaneous contractions
Description: Inhibition In Vitro of the Uterine Contractility of Myometreal Fibers from Uteruses of Women Who are Not Pregnant
The contractile activity of human myometreal fragments was studied in vitro.
After a lag time of approximately two hours, allowing the establishment of spontaneous contractions, the inhibition of the contractions, produced by addition to the medium of 17α-hydroxyprogesterone and of its nitro derivative, 17α-hydroxypregn-4-ene-3,20-dione (4′-nitro-oxymethyl)benzoate, identified in this table under the name 17α-hydroxypregn-4-ene-3,20-dione (4′-nitro-oxymethyl)benzoate (example 4), could be measured.
This experiment makes it possible to evaluate the short-term effect of this compound.

SMILES | Inhibition as % (Mean) (concentration 2 × 10^−6 M) [%] | Inhibition as % (Mean) (concentration 2 × 10^−7 M) [%] | Activity on contractions compared with hydroxyprogesterone (on average, action much more constant, less variable)
CC(=O)[C@@]1(O)CC[C@H]2[C@@H]3CCC4=CC(=O)CC[C@]4(C)[C@H]3CC[C@@]21C [17α-hydroxyprogesterone, reference compound] | 66 | 45 | –
CC(=O)[C@@]1(OC(=O)c2ccc(CO[N+](=O)[O-])cc2)CC[C@H]2[C@@H]3CCC4=CC(=O)CC[C@]4(C)[C@H]3CC[C@@]21C [17α-hydroxypregn-4-ene-3,20-dione (4′-nitrooxymethyl)benzoate] | 69 | 37 | the same activity as hydroxyprogesterone
